The test system of one assay is A549 cells. Description: Proliferation Assay (A549 viability, Cell Titer Fluor, 72 hours). Format: cell-based. To be noted: Homo sapiens, A549, 72 h. In a few lines: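 A549 cells seeded at 1000 cells/well, rested 24 h, then exposed to compound in 0.5% DMSO for 72 h at 37 °C. Viability read by Cell Titer Fluor fluorescence; IC50 from four-parameter logistic fit.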
The target in assay [1] is purified recombinant human GAC (GLS1) (Homo sapiens (Human), UniProt O94925). Description: GLS1 Enzymatic Activity Assay (dual-coupled enzymatic assay, resorufin/Amplex UltraRed readout).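 Note: glutamate from GAC coupled via glutamate oxidase and peroxidase to resorufin, read as fluorescence (ex 530, em 590 nm) kinetically or at 20 min, four-parameter logistic IC50 fit.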 Format: biochemical.
purified recombinant human GAC (GLS1), sequence (O94925 other isoform, or with tags, fused parts or gaps): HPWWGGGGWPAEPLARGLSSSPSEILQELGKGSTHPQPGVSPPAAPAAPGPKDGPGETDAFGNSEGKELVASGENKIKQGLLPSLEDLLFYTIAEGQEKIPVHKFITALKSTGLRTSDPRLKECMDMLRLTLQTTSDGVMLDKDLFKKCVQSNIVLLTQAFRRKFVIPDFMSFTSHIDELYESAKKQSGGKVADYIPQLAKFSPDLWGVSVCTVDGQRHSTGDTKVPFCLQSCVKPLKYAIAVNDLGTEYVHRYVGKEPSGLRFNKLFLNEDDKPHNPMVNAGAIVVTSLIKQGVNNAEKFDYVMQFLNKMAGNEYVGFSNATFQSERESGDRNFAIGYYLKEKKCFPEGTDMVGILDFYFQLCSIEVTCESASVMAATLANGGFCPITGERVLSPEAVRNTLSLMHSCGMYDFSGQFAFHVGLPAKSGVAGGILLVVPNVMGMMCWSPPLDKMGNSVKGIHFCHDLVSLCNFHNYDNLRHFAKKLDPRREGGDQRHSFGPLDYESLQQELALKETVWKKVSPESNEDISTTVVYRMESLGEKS

One may read the EC50 as the concentration that produces a half-maximal response. Broadly, the IC50 is the concentration needed to halve the response being measured. The compound `O=C(CC1CCCC1)Nc1cn(CCCCn2cc(C(=O)NCC3CCCC3)nn2)nn1` [Example 288, 1-{4-[4-(2-cyclopentylacetamido)-1H-1,2,3-triazol-1-yl]butyl}-N-(cyclopentylmethyl)-1H-1,2,3-triazole-4-carboxamide] came in with an EC50 in the assay on A549 cells of 500 to 5000 nM. For the same compound, in assay [1], the IC50 lay within 100 to 500 nM.

In the assay with A549 cells, `O=C(Cc1cccc(OC(F)(F)F)c1)Nc1cn(CCCCn2cc(C(=O)NCC3CCCC3)nn2)nn1` [Example 292, N-(cyclopentylmethyl)-1-[4-(4-{2-[3-(trifluoromethoxy)phenyl]acetamido}-1H-1,2,3-triazol-1-yl)butyl]-1H-1,2,3-triazole-4-carboxamide] displayed an EC50 of 500 to 5000 nM. In addition, the IC50 in assay [1] was 100 to 500 nM.

Consider `O=C(Cc1ccccn1)Nc1cn(CCCCn2cc(C(=O)NCc3cccc(OC(F)(F)F)c3)nn2)nn1` [Example 293, 1-(4-{4-[2-(pyridin-2-yl)acetamido]-1H-1,2,3-triazol-1-yl}butyl)-N-{[3-(trifluoromethoxy)phenyl]methyl}-1H-1,2,3-triazole-4-carboxamide], for which the EC50 in the assay on A549 cells lay within 100 to 500 nM. Besides, in assay [1], the IC50 is below 100 nM.

As for `O=C(Cc1cccnc1)Nc1cn(CCCCn2cc(C(=O)NCc3cccc(OC(F)(F)F)c3)nn2)nn1` [Example 294, 1-(4-{4-[2-(pyridin-3-yl)acetamido]-1H-1,2,3-triazol-1-yl}butyl)-N-{[3-(trifluoromethoxy)phenyl]methyl}-1H-1,2,3-triazole-4-carboxamide], in the assay on A549 cells, the EC50 was 100 to 500 nM. Also, the IC50 in assay [1] was below 100 nM.

In the case of `O=C(CC1CCCC1)Nc1cn(CCCCn2cc(C(=O)NCc3cccc(OC(F)(F)F)c3)nn2)nn1` [Example 295, 1-{4-[4-(2-cyclopentylacetamido)-1H-1,2,3-triazol-1-yl]butyl}-N-{[3-(trifluoromethoxy)phenyl]methyl}-1H-1,2,3-triazole-4-carboxamide], in the assay on A549 cells, the EC50 was below 100 nM. The IC50 in assay [1] was below 100 nM.

Consider `O=C(CC1CCCCC1)Nc1cn(CCCCn2cc(C(=O)NCc3cccc(OC(F)(F)F)c3)nn2)nn1` [Example 296, 1-{4-[4-(2-cyclohexylacetamido)-1H-1,2,3-triazol-1-yl]butyl}-N-{[3-(trifluoromethoxy)phenyl]methyl}-1H-1,2,3-triazole-4-carboxamide], for which the EC50 with A549 cells is below 100 nM. Besides, the IC50 in assay [1] is below 100 nM.

In the assay on A549 cells, `Cc1ccc(CNC(=O)c2cn(CCCCn3cc(NC(=O)Cc4cccc(OC(F)(F)F)c4)nn3)nn2)cn1` [Example 299, N-[(6-methylpyridin-3-yl)methyl]-1-[4-(4-{2-[3-(trifluoromethoxy)phenyl]acetamido}-1H-1,2,3-triazol-1-yl)butyl]-1H-1,2,3-triazole-4-carboxamide] displayed a concentration for a half-maximal effect (EC50) below 100 nM. Further, the IC50 in assay [1] is below 100 nM.

`Cc1ccc(CNC(=O)c2cn(CCCCn3cc(NC(=O)CC4CC4)nn3)nn2)cn1` [Example 300, 1-{4-[4-(2-cyclopropylacetamido)-1H-1,2,3-triazol-1-yl]butyl}-N-[(6-methylpyridin-3-yl)methyl]-1H-1,2,3-triazole-4-carboxamide] came in with an EC50 in the assay on A549 cells above 5000 nM. Moreover, the IC50 in assay [1] lay in the range of 500 to 5000 nM.

Compound `O=C(Cc1cccc(OC(F)(F)F)c1)Nc1cn(CCCCn2cc(C(=O)NCC3CC3)nn2)nn1` [Example 301, N-(cyclopropylmethyl)-1-[4-(4-{2-[3-(trifluoromethoxy)phenyl]acetamido}-1H-1,2,3-triazol-1-yl)butyl]-1H-1,2,3-triazole-4-carboxamide] had a 50% effective concentration (EC50) with A549 cells of 500 to 5000 nM. Also, the IC50 in assay [1] was in the range of 100 to 500 nM.

The compound `O=C(CC1CCCCC1)Nc1cn(CCCCn2cc(C(=O)NCC3CC3)nn2)nn1` [Example 305, 1-{4-[4-(2-cyclohexylacetamido)-1H-1,2,3-triazol-1-yl]butyl}-N-(cyclopropylmethyl)-1H-1,2,3-triazole-4-carboxamide] returned an EC50 with A549 cells of 500 to 5000 nM. Besides, the IC50 in assay [1] is 500 to 5000 nM.

`Cc1ccc(CC(=O)Nc2cn(CCCCn3cc(C(=O)NCc4ccccn4)nn3)nn2)cn1` [Example 306, 1-(4-{4-[2-(6-methylpyridin-3-yl)acetamido]-1H-1,2,3-triazol-1-yl}butyl)-N-(pyridin-2-ylmethyl)-1H-1,2,3-triazole-4-carboxamide] gave an EC50 in the assay with A549 cells of 500 to 5000 nM. In addition, the IC50 in assay [1] fell in the range of 100 to 500 nM.

`O=C(Cc1cccc(OC(F)(F)F)c1)Nc1cn(CCCCn2cc(C(=O)NCc3cccnc3)nn2)nn1` [Example 307, N-(pyridin-3-ylmethyl)-1-[4-(4-{2-[3-(trifluoromethoxy)phenyl]acetamido}-1H-1,2,3-triazol-1-yl)butyl]-1H-1,2,3-triazole-4-carboxamide] had an EC50 in the assay with A549 cells of 100 to 500 nM. Besides, in assay [1], the IC50 was below 100 nM.

With `O=C(CC1CCCC1)Nc1cn(CCCCn2cc(C(=O)NCc3cccnc3)nn2)nn1` [Example 309, 1-{4-[4-(2-cyclopentylacetamido)-1H-1,2,3-triazol-1-yl]butyl}-N-(pyridin-3-ylmethyl)-1H-1,2,3-triazole-4-carboxamide], in the assay with A549 cells, the EC50 was in the range of 100 to 500 nM. In addition, in assay [1], the IC50 lay within 100 to 500 nM.

With `O=C(CC1CCCCC1)Nc1cn(CCCCn2cc(C(=O)NCc3cccnc3)nn2)nn1` [Example 310, 1-{4-[4-(2-cyclohexylacetamido)-1H-1,2,3-triazol-1-yl]butyl}-N-(pyridin-3-ylmethyl)-1H-1,2,3-triazole-4-carboxamide], the EC50 with A549 cells lay in the range of 100 to 500 nM. For the same compound, in assay [1], the IC50 was below 100 nM.

In the assay with A549 cells, `Cc1ccc(CC(=O)Nc2cn(CCCCn3cc(C(=O)NCC4CCCC4)nn3)nn2)cn1` [Example 311, N-(cyclopentylmethyl)-1-(4-{4-[2-(6-methylpyridin-3-yl)acetamido]-1H-1,2,3-triazol-1-yl}butyl)-1H-1,2,3-triazole-4-carboxamide] came in with an EC50 of 500 to 5000 nM. The IC50 in assay [1] lay within 100 to 500 nM.

In turn, `Cc1ccc(CC(=O)Nc2cn(CCCCn3cc(C(=O)NCC4CCCCC4)nn3)nn2)cn1` [Example 312, N-(cyclohexylmethyl)-1-(4-{4-[2-(6-methylpyridin-3-yl)acetamido]-1H-1,2,3-triazol-1-yl}butyl)-1H-1,2,3-triazole-4-carboxamide] had an EC50 in the assay on A549 cells of 500 to 5000 nM. Moreover, the IC50 in assay [1] lay in the range of 100 to 500 nM.

Turning to `Cc1ccc(CC(=O)Nc2cn(CCCCn3cc(C(=O)NCc4cccc(OC(F)(F)F)c4)nn3)nn2)cn1` [Example 313, 1-(4-{4-[2-(6-methylpyridin-3-yl)acetamido]-1H-1,2,3-triazol-1-yl}butyl)-N-{[3-(trifluoromethoxy)phenyl]methyl}-1H-1,2,3-triazole-4-carboxamide], the EC50 with A549 cells was below 100 nM. Also, the IC50 in assay [1] was below 100 nM.

Turning to `Cc1ccc(CNC(=O)c2cn(CCCCn3cc(NC(=O)Cc4ccccn4)nn3)nn2)cn1` [Example 314, N-[(6-methylpyridin-3-yl)methyl]-1-(4-{4-[2-(pyridin-2-yl)acetamido]-1H-1,2,3-triazol-1-yl}butyl)-1H-1,2,3-triazole-4-carboxamide], the EC50 in the assay on A549 cells was 500 to 5000 nM. In addition, the IC50 in assay [1] was in the range of 100 to 500 nM.

In turn, `Cc1ccc(CNC(=O)c2cn(CCCCn3cc(NC(=O)Cc4cccnc4)nn3)nn2)cn1` [Example 315, N-[(6-methylpyridin-3-yl)methyl]-1-(4-{4-[2-(pyridin-3-yl)acetamido]-1H-1,2,3-triazol-1-yl}butyl)-1H-1,2,3-triazole-4-carboxamide] displayed an EC50 in the assay on A549 cells of 500 to 5000 nM. In addition, the IC50 in assay [1] was 100 to 500 nM.

`Cc1ccc(CNC(=O)c2cn(CCCCn3cc(NC(=O)Cc4ccc(C)nc4)nn3)nn2)cn1` [Example 316, 1-(4-{4-[2-(6-methylpyridin-3-yl)acetamido]-1H-1,2,3-triazol-1-yl}butyl)-N-[(6-methylpyridin-3-yl)methyl]-1H-1,2,3-triazole-4-carboxamide]: the EC50 in the assay with A549 cells lay within 500 to 5000 nM. Besides, in assay [1], the IC50 was below 100 nM.

Take `Cc1ccc(CNC(=O)c2cn(CCCCn3cc(NC(=O)CC4CCCC4)nn3)nn2)cn1` [Example 317, 1-{4-[4-(2-cyclopentylacetamido)-1H-1,2,3-triazol-1-yl]butyl}-N-[(6-methylpyridin-3-yl)methyl]-1H-1,2,3-triazole-4-carboxamide]: in the assay with A549 cells, the EC50 was in the range of 100 to 500 nM. Moreover, the IC50 in assay [1] was in the range of 100 to 500 nM.

Compound `Cc1ccc(CNC(=O)c2cn(CCCCn3cc(NC(=O)CC4CCCCC4)nn3)nn2)cn1` [Example 318, 1-{4-[4-(2-cyclohexylacetamido)-1H-1,2,3-triazol-1-yl]butyl}-N-[(6-methylpyridin-3-yl)methyl]-1H-1,2,3-triazole-4-carboxamide] gave an EC50 in the assay with A549 cells below 100 nM. Also, the IC50 in assay [1] is below 100 nM.

In the assay with A549 cells, `Cc1ccc(CC(=O)Nc2cn(CCCCn3cc(C(=O)NCC4CC4)nn3)nn2)cn1` [Example 319, N-(cyclopropylmethyl)-1-(4-{4-[2-(6-methylpyridin-3-yl)acetamido]-1H-1,2,3-triazol-1-yl}butyl)-1H-1,2,3-triazole-4-carboxamide] registered an EC50 above 5000 nM. Moreover, the IC50 in assay [1] is 500 to 5000 nM.

`O=C(Cc1cccnc1)Nc1cn(CCCCn2cc(C(=O)NCc3cccnc3)nn2)nn1` [Example 320, 1-(4-{4-[2-(pyridin-3-yl)acetamido]-1H-1,2,3-triazol-1-yl}butyl)-N-(pyridin-3-ylmethyl)-1H-1,2,3-triazole-4-carboxamide] registered an EC50 with A549 cells of 500 to 5000 nM. Further, in assay [1], the concentration for half-maximal inhibition (IC50) was in the range of 100 to 500 nM.

`O=C(Cc1ccccn1)Nc1cn(CCCCn2cc(C(=O)NCc3cccnc3)nn2)nn1` [Example 321, 1-(4-{4-[2-(pyridin-2-yl)acetamido]-1H-1,2,3-triazol-1-yl}butyl)-N-(pyridin-3-ylmethyl)-1H-1,2,3-triazole-4-carboxamide] gave an EC50 in the assay on A549 cells of 500 to 5000 nM. Besides, the IC50 in assay [1] fell in the range of 500 to 5000 nM.

`Cc1ccc(CC(=O)Nc2cn(CCCCn3cc(C(=O)NCc4cccnc4)nn3)nn2)cn1` [Example 322, 1-(4-{4-[2-(6-methylpyridin-3-yl)acetamido]-1H-1,2,3-triazol-1-yl}butyl)-N-(pyridin-3-ylmethyl)-1H-1,2,3-triazole-4-carboxamide] yielded an EC50 in the assay with A549 cells of 500 to 5000 nM. The IC50 in assay [1] lay within 100 to 500 nM.

The values are drawn from patent US10344025B2, “GLS1 inhibitors for treating disease” (Board of Regents, The University of Texas System, priority 2014, dated 2019).
